{"source": "patent US20100098632A1", "about": "“HYDROXYAPATITE PARTICLES” (priority 2006, published 2010)", "key": {"[1]": {"assay": "In vivo biodistribution of Sm-HAP by gamma camera / microSPECT-CT imaging", "settings": "mice, intravenous, 200 μCi for Sm-HAP", "description": "FIG. 1 contains photographs of the distribution of Sm-HAP uptake in mice. […] The mouse was injected intravenously with Sm-153 HA nanoparticles synthesized at 50° C. Imaging was performed 2 hours post injection.\nFIG. 2 contains a photograph of the distribution of Sm-153 EDTMP determined via non-invasive imaging using a small animal gamma camera (X-SPECT).\nTo determine the in vivo biodistribution of Sm-HAP, 200 μCi of Sm-HAP were administered intravenously to mice in 150 to 200 μL. The mice were imaged non-invasively using a microSPECT/CT machine."}, "[2]": {"test_system": "Hep3B/Fluc", "assay": "Mouse liver cancer model, bioluminescent tumor imaging", "assay_type": "in vivo, Nude mice", "settings": "intrahepatic Hep3B/Fluc, treatment day seven, intravenous", "description": "Experiments were performed to evaluate Sm-153-hydroxyapatite particles (Sm-HAP) alone or in combination with PS-341, a radiosensitizer drug, in a mouse liver cancer model. Nude mice were injected intrahepatically with Hep3B/Fluc, a human hepatocellular carcinoma cell line expressing Firefly luciferase. Tumor growth was determined using a Xenogen Bioluminescent IVIS 200 Imaging System. On day seven after tumor implantation, mice were injected intravenously via the tail vein with 200 μg HAP, 0.5 mCi free Sm-153-EDTMP, 0.5 mCi Sm-HAP alone, or 0.5 mCi Sm-HAP in combination with two intraperitoneal doses of 0.5 mg/kg PS-341, the first administered one day prior to Sm-HAP administration and the second administered one day after Sm-HAP administration. […] In contrast, tumors in mice treated with the combination therapy (Sm-HAP and two doses of PS-341) regressed, as evidenced by a decrease in the signal (FIG. 7)."}, "[3]": {"assay": "Labeling of preformed hydroxyapatite particles by incubation with Sm-153-EDTMP", "assay_type": "physicochemical", "settings": "1 mg particles with 200 μCi for up to 2 hours at room temperature", "description": "The unlabeled, hydroxyapatite particles were incubated with Sm-153-EDTMP. Briefly, 1 mg of hydroxyapatite particles was incubated with 200 μCi of Sm-153-EDTMP for up to 2 hours at room temperature (25° C.). The resulting hydroxyapatite particles were spun down and resuspended in 10 mM Tris buffer pH 7.2. The amount of Sm-153 radioactivity in the hydroxyapatite particles was determined and found to be negligible."}, "[4]": {"assay": "Clodronate loading on hydroxyapatite particles", "assay_type": "physicochemical", "settings": "for binding (loading) efficiency of clodronate to HA: 20 mg clodronate per 1 mg particles, disodium salt", "description": "Clodronate (dichloromethylenediphosphonic acid disodium salt; Sigma, St. Louis, Mo.) was dissolved in distilled water (200 mg/mL) and 20 mg was added to 1 mg of hydroxyapatite particles. The mixture was incubated for 30 minutes. After hydroxyapatite particle binding, free clodronate in the supernatant was complexed with copper (II) ions (Cu^2) in nitric acid solution and the concentration was assayed by ultraviolet spectrophotometry as described elsewhere (Ostovic et al., Pharm Res., 10:470-472 (1993)). The amount of clodronate bound to hydroxyapatite particles was calculated by subtracting free clodronate from input clodronate.\nThe feasibility of utilizing the HA-biphosphonate interaction for drug loading onto the particles also was tested. Twenty milligrams of clodronate, a biphosphonate, was mixed with 1 mg of hydroxyapatite particles (40 nm in size) in 10 mM Tris-Cl buffer (pH 7.2), and the mixture was incubated with continuous shaking at room temperature for 30 minutes. Clodronate could be loaded onto hydroxyapatite particles at 10% efficiency (2 mg clodronate/mg HAP; n=3). […] The clodronate that was loaded on hydroxyapatite particles remained biologically active."}}}
{"smiles": "O=P([O-])(O)CN(CCN(CP(=O)([O-])O)CP(=O)(O)O)CP(=O)([O-])O.[153Sm+3]", "note": "[Sm-153-EDTMP]", "values": [{"measurement": "in vivo biodistribution (uptake sites by imaging)", "setting": "[1]", "result": "binds to the skeleton of the mouse"}, {"measurement": "tumor course by bioluminescent signal", "setting": "[2]", "result": "progressed"}, {"measurement": "amount of Sm-153 radioactivity in the hydroxyapatite particles", "setting": "[3]", "result": "negligible"}]}
{"smiles": "O=P([O-])([O-])C(Cl)(Cl)P(=O)(O)O.[Na+].[Na+]", "note": "[clodronate, dichloromethylenediphosphonic acid disodium salt]", "values": [{"measurement": "final concentration of clodronate on HA", "setting": "[4]; 40 nm HA", "result": 2, "unit": "mg clodronate/mg HA"}, {"measurement": "binding (loading) efficiency of clodronate to HA", "setting": "[4]; 40 nm HA", "result": 10, "unit": "%"}, {"measurement": "binding (loading) efficiency of clodronate to HA", "setting": "[4]; 40 nm HA, listed as clondronate", "result": "about 10%"}, {"measurement": "clodronate loaded per mg particles", "setting": "[4]; 40 nm, 10 mM Tris-Cl pH 7.2, 30 minutes, n=3", "result": 2, "unit": "mg clodronate/mg HAP"}]}
